Data: patent US20120141478A1, “COMPOSITIONS AND METHODS FOR DELIVERING ANTI-ACTIVATED RAS ANTIBODIES” (Cellectis S.A., priority 2006, published 2012)

Key:
K-RASmt HCT 116 cells = assay: In vitro anti-proliferative activity (WST-1) on HCT 116; format: cell-based, human
Method: Cells were incubated for 120 hours with the antibody alone (Y13259; 700 nM), or the DPV3-Y13259 conjugate (700 nM), with DPV3-maleimide as internal controls (DPV3-mal; 700 nM). Non-relevant IgG1 anti-peroxydase immunoglobulins (IgG PO; 700 nM) and an inhibitor of RAS farnesyltransferase (FTI-276; 100 nM) were used as internal controls. Results are expressed as mean±SEM of three independent experiments performed in duplicate. *p<0.05 vs not treated cells.
HCT 116 and HT-29 were seeded at 8×10^3 cells/well (96-well plates) in medium+0.5% and 10% FCS (Foetal Calf Serum) respectively. The day after, cells were treated with increasing concentrations of tested compounds in complete medium (+10% FCS) and cells were counted overtime at 24 h, 48 h, 72 h and 120 h using the WST-1 method, described hereafter. The medium was removed and 100 μl of fresh medium without FCS supplemented with 10% WST-1 solution was added on cells for 2 h at 37° C., 5% CO2. Measurement of A450 nm−A690 nm (blank=0 cells) was performed to determine cell number.
CPP-Y13259 conjugates were tested in a cell proliferation assay on mutated RAS-expressing and wild-type RAS expressing cell lines (HCT 116 and HT-29, respectively). FTI-276, a farnesyltransferase inhibitor that inhibits RAS-mediated cell proliferation constituted a positive control. […]

[1] = test system: human lung carcinoma expressing K-RAS; conditions: cited from earlier work
[2] = target: mutated Ki-RAS of HCT 116 cells (human) (UniProt P01116); assay: cell-based or functional assay

| efficient concentration, HCT 116 cell proliferation (WST-1) [2] [nM] | Compound | duration of the effect on HCT 116 cell proliferation (K-RASmt HCT 116 cells; 120 hours = maximum time tested) | effect on HCT 116 cell proliferation (K-RASmt HCT 116 cells; FTI-276 100 nM, positive control) | effect on tumor growth in nude mice [1] |
| --- | --- | --- | --- | --- |
|  | CSCC[C@H](NC(=O)c1ccc(NC[C@@H](N)CS)cc1-c1ccccc1)C(=O)O [FTI-276] | at least 120 hours | inhibited HCT 116 cell proliferation | block the growth of a human lung carcinoma expressing K-RAS in nude mice |
| 85 to 700 | DPV3-Y13259 conjugate (antibody) |  |  |  |
